How the values were obtained:
Assay in all cases: relative viability (nuclei count vs DMSO), 5 days (fraction); higher = more cells survive
Midostaurin + Alpelisib = compound: CO[C@@H]1[C@H](N(C)C(=O)c2ccccc2)C[C@H]2O[C@]1(C)n1c3ccccc3c3c4c(c5c6ccccc6n2c5c31)C(=O)NC4 [Midostaurin] + Cc1nc(NC(=O)N2CCC[C@H]2C(N)=O)sc1-c1ccnc(C(C)(C)C(F)(F)F)c1 [Alpelisib] (partner 2 µM)
Procedure, shortened: (§1)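 Nuclei were stained with Hoechst during a one-step fixation (final 0.05% Triton X-100, 1% formaldehyde, 1 ug/ml Hoechst) carried out 5 days after dosing, then counted on 4× images. The cells, lung cancer lines in 1536-well plates, had been dosed by pin tool the day after seeding with one drug alone or a fixed anchor-drug dose plus five library-drug doses (not always all listed) in √10 steps. Relative viability is the nuclei count in treated wells divided by that in vehicle wells, and each value is the median of duplicate plates.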

[1] = compound: COc1cc(-c2nn([C@H]3CC[C@H](N4CCN(C(C)=O)CC4)CC3)c3ncnc(N)c23)ccc1NC(=O)c1cc2ccccc2n1C + Nc1ncn([C@H]2C[C@H](O)[C@@H](CO)O2)c(=O)n1 [Decitabine] (partner 2 µM)
Procedure, shortened: as §1

[2] = compound: COc1cc(-c2nn([C@H]3CC[C@H](N4CCN(C(C)=O)CC4)CC3)c3ncnc(N)c23)ccc1NC(=O)c1cc2ccccc2n1C + C[C@@H](Oc1cc(-c2cnn(C3CCNCC3)c2)cnc1N)c1c(Cl)ccc(F)c1Cl [Crizotinib] (partner 1 µM)
Procedure, shortened: as §1

[3] = compound: CO[C@@H]1[C@H](N(C)C(=O)c2ccccc2)C[C@H]2O[C@]1(C)n1c3ccccc3c3c4c(c5c6ccccc6n2c5c31)C(=O)NC4 [Midostaurin] + CC(=O)c1c(C)c2cnc(Nc3ccc(N4CCNCC4)cn3)nc2n(C2CCCC2)c1=O [Palbociclib] (partner 0.5 µM)
Procedure, shortened: as §1

Midostaurin + AZD7762 = compound: CO[C@@H]1[C@H](N(C)C(=O)c2ccccc2)C[C@H]2O[C@]1(C)n1c3ccccc3c3c4c(c5c6ccccc6n2c5c31)C(=O)NC4 [Midostaurin] + NC(=O)Nc1cc(-c2cccc(F)c2)sc1C(=O)N[C@H]1CCCNC1 [AZD7762] (partner 0.2 µM)
Procedure, shortened: as §1

Cell Line	relative viability (Midostaurin + Alpelisib; first compound 0.01 µM)	relative viability (Midostaurin + Alpelisib; first compound 0.03162 µM)	relative viability (Midostaurin + Alpelisib; first compound 0.1 µM)	relative viability (Midostaurin + Alpelisib; first compound 0.3162 µM)	relative viability ([1]; first compound 0.0128 µM)	relative viability ([1]; first compound 0.04048 µM)	relative viability ([1]; first compound 0.128 µM)	relative viability ([1]; first compound 1.28 µM)	relative viability ([2]; first compound 0.0128 µM)	relative viability ([2]; first compound 0.04048 µM)	relative viability ([2]; first compound 0.128 µM)	relative viability ([2]; first compound 1.28 µM)	relative viability ([3]; first compound 0.01 µM)	relative viability ([3]; first compound 0.03162 µM)	relative viability ([3]; first compound 0.1 µM)	relative viability ([3]; first compound 0.3162 µM)	relative viability (Midostaurin + AZD7762; first compound 0.01 µM)	relative viability (Midostaurin + AZD7762; first compound 0.03162 µM)	relative viability (Midostaurin + AZD7762; first compound 0.1 µM)	relative viability (Midostaurin + AZD7762; first compound 0.3162 µM)
NCI-H1975	0.613	0.628	0.575	0.38	0.406	0.33	0.376	0.235	0.869	1.18	0.966	0.424	0.524	0.65	0.564	0.583	0.818	0.756	0.673	0.654
NCI-H1651	1.17	0.92	0.935	0.902	0.587	0.654	0.605	0.438	0.902	0.908	0.81	0.712	0.518	0.52	0.525	0.53	0.455	0.557	0.459	0.478
NCI-H441	0.817	0.669	0.536	0.736	0.246	0.286	0.321	0.24	0.841	0.621	0.655	0.705	0.265	0.219	0.234	0.189	1.15	0.888	0.984	1.1
LCLC-103H	0.932	0.979	1.04	1.06	0.832	0.725	0.691	0.759	1.17	1.22	0.993	1.07	0.449	0.484	0.512	0.542	0.789	0.782	0.682	0.787
